PubChem BioAssay AID1259407 (Chemical Carcinogenesis Research Information System (CCRIS), 2018)
Calls of active or inactive are those of the source. No rule for the calls is given here.

System: CCRIS mutagenicity, Ames/micronucleus/aberration tests
Experiment: CCRIS mutagenicity studies
[1] = Test System: AMES SALMONELLA TYPHIMURIUM, Strain/Indicator: TA98, Metabolic Activation: NONE, Method: STANDARD PLATE
[2] = Test System: AMES SALMONELLA TYPHIMURIUM, Strain/Indicator: TA98, Metabolic Activation: RAT, LIVER, S-9, AROCLOR 1254, Method: STANDARD PLATE
[3] = Test System: AMES SALMONELLA TYPHIMURIUM, Strain/Indicator: TA100, Metabolic Activation: NONE, Method: PREINCUBATION
[4] = Test System: AMES SALMONELLA TYPHIMURIUM, Strain/Indicator: TA100, Metabolic Activation: NONE, Method: STANDARD PLATE
[5] = Test System: AMES SALMONELLA TYPHIMURIUM, Strain/Indicator: TA100, Metabolic Activation: RAT, LIVER, S-9, AROCLOR 1254, Method: STANDARD PLATE
[6] = Test System: AMES SALMONELLA TYPHIMURIUM, Strain/Indicator: TA1535, Metabolic Activation: NONE, Method: PREINCUBATION
[7] = Test System: AMES SALMONELLA TYPHIMURIUM, Strain/Indicator: TA1537, Metabolic Activation: NONE, Method: PREINCUBATION
[8] = Test System: AMES SALMONELLA TYPHIMURIUM, Strain/Indicator: TA1537, Metabolic Activation: RAT, LIVER, S-9, AROCLOR 1254, Method: STANDARD PLATE

CCCCC(CC)COC(=O)c1ccc(N(C)N=O)cc1 (centres undefined)
mutagenic call (Test System: AMES SALMONELLA TYPHIMURIUM, Strain/Indicator: TA98, Metabolic Activation: HAMSTER, LIVER, S-9, AROCLOR 1254, Method: PREINCUBATION): inactive; negative
mutagenic call (Test System: AMES SALMONELLA TYPHIMURIUM, Strain/Indicator: TA98, Metabolic Activation: HAMSTER, LIVER, S-9, AROCLOR 1254, Method: STANDARD PLATE): inactive; negative
mutagenic call (Test System: AMES SALMONELLA TYPHIMURIUM, Strain/Indicator: TA98, Metabolic Activation: NONE, Method: PREINCUBATION): inactive; negative
mutagenic call [1]: inactive; negative
mutagenic call (Test System: AMES SALMONELLA TYPHIMURIUM, Strain/Indicator: TA98, Metabolic Activation: RAT, LIVER, S-9, AROCLOR 1254, Method: PREINCUBATION): inactive; negative
mutagenic call [2]: inactive; negative
mutagenic call (Test System: AMES SALMONELLA TYPHIMURIUM, Strain/Indicator: TA100, Metabolic Activation: HAMSTER, LIVER, S-9, AROCLOR 1254 (1.5 OR 3.6 MG), Method: PREINCUBATION): inactive; negative
mutagenic call (Test System: AMES SALMONELLA TYPHIMURIUM, Strain/Indicator: TA100, Metabolic Activation: HAMSTER, LIVER, S-9, AROCLOR 1254, Method: PREINCUBATION): inactive; negative
mutagenic call (Test System: AMES SALMONELLA TYPHIMURIUM, Strain/Indicator: TA100, Metabolic Activation: HAMSTER, LIVER, S-9, AROCLOR 1254, Method: STANDARD PLATE): inactive; negative
mutagenic call [3]: inactive; negative
mutagenic call [4]: inactive; negative
mutagenic call (Test System: AMES SALMONELLA TYPHIMURIUM, Strain/Indicator: TA100, Metabolic Activation: RAT, LIVER, S-9, AROCLOR 1254 (1.5 OR 2.2 MG), Method: PREINCUBATION): inactive; negative
mutagenic call (Test System: AMES SALMONELLA TYPHIMURIUM, Strain/Indicator: TA100, Metabolic Activation: RAT, LIVER, S-9, AROCLOR 1254, Method: PREINCUBATION): inactive; negative
mutagenic call [5]: inactive; negative
mutagenic call (Test System: AMES SALMONELLA TYPHIMURIUM, Strain/Indicator: TA1535, Metabolic Activation: HAMSTER, LIVER, S-9, AROCLOR 1254 (1.5 OR 3.6 MG), Method: PREINCUBATION): inactive; negative
mutagenic call (Test System: AMES SALMONELLA TYPHIMURIUM, Strain/Indicator: TA1535, Metabolic Activation: HAMSTER, LIVER, S-9, AROCLOR 1254, Method: PREINCUBATION): inactive; negative
mutagenic call (Test System: AMES SALMONELLA TYPHIMURIUM, Strain/Indicator: TA1535, Metabolic Activation: HAMSTER, LIVER, S-9, AROCLOR 1254, Method: STANDARD PLATE): inactive; negative
mutagenic call [6]: inactive; negative
mutagenic call (Test System: AMES SALMONELLA TYPHIMURIUM, Strain/Indicator: TA1535, Metabolic Activation: NONE, Method: STANDARD PLATE): inactive; negative
mutagenic call (Test System: AMES SALMONELLA TYPHIMURIUM, Strain/Indicator: TA1535, Metabolic Activation: RAT, LIVER, S-9, AROCLOR 1254 (1.5 OR 2.2 MG), Method: PREINCUBATION): inactive; negative
mutagenic call (Test System: AMES SALMONELLA TYPHIMURIUM, Strain/Indicator: TA1535, Metabolic Activation: RAT, LIVER, S-9, AROCLOR 1254, Method: PREINCUBATION): inactive; negative
mutagenic call (Test System: AMES SALMONELLA TYPHIMURIUM, Strain/Indicator: TA1535, Metabolic Activation: RAT, LIVER, S-9, AROCLOR 1254, Method: STANDARD PLATE): inactive; negative
mutagenic call (Test System: AMES SALMONELLA TYPHIMURIUM, Strain/Indicator: TA1537, Metabolic Activation: HAMSTER, LIVER, S-9, AROCLOR 1254, Method: PREINCUBATION): inactive; negative
mutagenic call (Test System: AMES SALMONELLA TYPHIMURIUM, Strain/Indicator: TA1537, Metabolic Activation: HAMSTER, LIVER, S-9, AROCLOR 1254, Method: STANDARD PLATE): inactive; negative
mutagenic call [7]: inactive; negative
mutagenic call (Test System: AMES SALMONELLA TYPHIMURIUM, Strain/Indicator: TA1537, Metabolic Activation: NONE, Method: STANDARD PLATE): inactive; negative
mutagenic call (Test System: AMES SALMONELLA TYPHIMURIUM, Strain/Indicator: TA1537, Metabolic Activation: RAT, LIVER, S-9, AROCLOR 1254, Method: PREINCUBATION): inactive; negative
mutagenic call [8]: inactive; negative
mutagenic call (Test System: AMES SALMONELLA TYPHIMURIUM, Strain/Indicator: TA1538, Metabolic Activation: HAMSTER, LIVER, S-9, AROCLOR 1254, Method: PREINCUBATION): inactive; negative
mutagenic call (Test System: AMES SALMONELLA TYPHIMURIUM, Strain/Indicator: TA1538, Metabolic Activation: HAMSTER, LIVER, S-9, AROCLOR 1254, Method: STANDARD PLATE): inactive; negative
mutagenic call (Test System: AMES SALMONELLA TYPHIMURIUM, Strain/Indicator: TA1538, Metabolic Activation: NONE, Method: PREINCUBATION): inactive; negative
mutagenic call (Test System: AMES SALMONELLA TYPHIMURIUM, Strain/Indicator: TA1538, Metabolic Activation: NONE, Method: STANDARD PLATE): inactive; negative
mutagenic call (Test System: AMES SALMONELLA TYPHIMURIUM, Strain/Indicator: TA1538, Metabolic Activation: RAT, LIVER, S-9, AROCLOR 1254, Method: PREINCUBATION): inactive; negative
mutagenic call (Test System: AMES SALMONELLA TYPHIMURIUM, Strain/Indicator: TA1538, Metabolic Activation: RAT, LIVER, S-9, AROCLOR 1254, Method: STANDARD PLATE): inactive; negative
mutagenic call (Test System: MOUSE LYMPHOMA, Strain/Indicator: L5178Y (TK+/TK-), Metabolic Activation: HAMSTER, LIVER, S-9, AROCLOR 1254, Method: SUSPENSION/PLATE): inactive; negative

Cc1ccc(C(=O)O[C@@H](C(=O)O)[C@@H](OC(=O)c2ccc(C)cc2)C(=O)O)cc1 (tested in a mixture with another compound)
mutagenic call [2]: active; positive
mutagenic call [4]: inactive; negative
mutagenic call [5]: active; positive
mutagenic call [8]: active; positive

CO[C@]1(CC[C@@H](C)CO[C@@H]2O[C@H](CO)[C@@H](O)[C@H](O)[C@H]2O)O[C@H]2C[C@H]3[C@@H]4CC=C5C[C@@H](O[C@@H]6O[C@H](CO)[C@@H](O)[C@H](O[C@@H]7O[C@H](CO)[C@@H](O)[C@H](O)[C@H]7O)C6O[C@@H]6O[C@@H](C)[C@H](O)[C@@H](O)[C@H]6O)CC[C@]5(C)[C@H]4CC[C@]3(C)[C@H]2[C@@H]1C (some centres undefined)
mutagenic call [1]: inactive; negative
mutagenic call (Test System: AMES SALMONELLA TYPHIMURIUM, Strain/Indicator: TA98, Metabolic Activation: RAT, LIVER, S-9, PHENOBARBITAL, Method: STANDARD PLATE): inactive; negative
mutagenic call [4]: inactive; negative
mutagenic call (Test System: AMES SALMONELLA TYPHIMURIUM, Strain/Indicator: TA100, Metabolic Activation: RAT, LIVER, S-9, PHENOBARBITAL, Method: STANDARD PLATE): inactive; negative

C/C=C(/C)C(=O)O[C@@H]1CCN2CC=C(CO)[C@H]12
mutagenic call (Test System: AMES SALMONELLA TYPHIMURIUM, Strain/Indicator: TA100, Metabolic Activation: RAT, LIVER, S-9, SODIUM PHENOBARBITAL AND BETA-NAPHTHOFLAVONE, Method: PREINCUBATION): inactive; negative

O=O
mutagenic call (Test System: AMES SALMONELLA TYPHIMURIUM, Strain/Indicator: TA92, Metabolic Activation: NONE, Method: PREINCUBATION): inactive; negative
mutagenic call (Test System: AMES SALMONELLA TYPHIMURIUM, Strain/Indicator: TA97, Metabolic Activation: NONE, Method: PREINCUBATION): inactive; negative
mutagenic call [3]: inactive; negative
mutagenic call (Test System: AMES SALMONELLA TYPHIMURIUM, Strain/Indicator: TA102, Metabolic Activation: NONE, Method: PREINCUBATION): active; positive
mutagenic call (Test System: AMES SALMONELLA TYPHIMURIUM, Strain/Indicator: TA104, Metabolic Activation: NONE, Method: PREINCUBATION): active; positive
mutagenic call [6]: inactive; negative
mutagenic call [7]: inactive; negative
mutagenic call (Test System: CHINESE HAMSTER V-79, Strain/Indicator: V-79/8-AZAGUANINE, Metabolic Activation: NONE, Method: STANDARD PLATE): active; positive
mutagenic call (Test System: CHINESE HAMSTER V-79 CELLS, Strain/Indicator: V-79-UL (HPRT)/6-THIOGUANINE, Metabolic Activation: NONE, Method: SUSPENSION/PLATE): active; positive
mutagenic call (Test System: MOUSE LYMPHOMA, Strain/Indicator: L5178Y (TK+/-), Metabolic Activation: NONE, Method: SUSPENSION/PLATE): active; positive
